We go through 11 compounds from US8513297B2, “Biaromatic compounds that modulate PPARy type receptors and cosmetic/pharmaceutical compositions comprised thereof” (Galderma Research & Development, priority 2004, dated 2013).

What all share (type): cell-based
One assay concerns the target T1, PPARγ (Homo sapiens, UniProt P37231).
T1 construct: Either way it is a handle and not a second protein
T1 sequence (P37231 238-505 limits assumed): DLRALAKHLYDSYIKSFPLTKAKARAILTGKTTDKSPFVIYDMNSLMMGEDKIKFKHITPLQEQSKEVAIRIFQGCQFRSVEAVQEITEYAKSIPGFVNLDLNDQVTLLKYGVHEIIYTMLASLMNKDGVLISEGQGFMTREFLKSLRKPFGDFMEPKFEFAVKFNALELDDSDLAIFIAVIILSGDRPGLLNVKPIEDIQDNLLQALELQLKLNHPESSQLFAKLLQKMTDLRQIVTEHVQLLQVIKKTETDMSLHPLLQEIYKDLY
As to the kind of experiment: Crossover-curve PPAR transactivation test, PPARγ. The conditions noted are these: HeLN cells stably transfected with Gal-hPPARγ and luciferase reporter; Schild regression against reference agonist; n.a. means not active; read-out: PPARγ Kd app. The method, then:
(§1) The activation of PPAR receptors with an agonist (activator) in HeLN cells leads to the expression of a reporter gene, luciferase, which, in the presence of a substrate, generates light. The modulation of the PPAR receptors is measured by quantifying the luminescence produced after incubating the cells in the presence of a reference agonist. The ligands displace the agonist from its site. The measurement of the activity is performed by quantifying the light produced. This measurement makes it possible to determine the modulatory activity of the compounds according to the invention by determining the constant that is the affinity of the molecule for the PPAR receptor. Since this value can fluctuate depending on the basal activity and the expression of the receptor, it is referred to as Kd apparent (KdApp in nM).
(§2) To determine this constant, “crossover curves” of the test product against a reference agonist are performed in a 96-well plate: 10 concentrations of the test product plus a concentration 0 are arranged in a line, and 7 concentrations of the agonist plus a concentration 0 are arranged in a column. This is 88 measurement points for 1 product and 1 receptor. The remaining 8 wells are used for repeatability controls.
(§3) Measurements are also taken for total agonist controls with the same products.
(§4) The HeLN cell lines used are stable transfectants containing the plasmids ERE-βGlob-Luc-SV-Neo (reporter gene) and PPAR (α, δ, γ) Gal-hPPAR. These cells are inoculated into 96-well plates at a rate of 10 000 cells per well in 100 μl of DMEM medium without phenol red and supplemented with 10% of defatted calf serum. The plates are then incubated at 37° C. and 7% CO2 for 16 hours.
(§5) The various dilutions of the test products and of the reference ligand are added at a rate of 5 μl per well. The plates are then incubated for 18 hours at 37° C. and 7% CO2. The culture medium is removed by turning over and 100 μl of a 1:1 PBS/luciferine mixture are added to each well. After 5 minutes, the plates are read by the luminescence detector.

The target in a further assay is T2, PPARδ (Homo sapiens, UniProt Q03181).
T2 construct: Either way it is a handle and not a second protein
T2 sequence (Q03181 211-441 limits assumed): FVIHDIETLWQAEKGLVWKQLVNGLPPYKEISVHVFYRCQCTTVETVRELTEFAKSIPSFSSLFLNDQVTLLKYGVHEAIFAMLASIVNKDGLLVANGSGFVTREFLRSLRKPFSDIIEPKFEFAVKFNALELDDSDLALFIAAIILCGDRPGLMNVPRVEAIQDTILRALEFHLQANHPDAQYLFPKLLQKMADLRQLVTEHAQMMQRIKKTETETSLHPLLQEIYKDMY
As to the kind of experiment: Crossover-curve PPAR transactivation test, PPARδ. Conditions: HeLN cells stably transfected with Gal-hPPARδ and luciferase reporter; Schild regression against reference agonist; n.a. means not active; read-out: PPARδ Kd app. The method, then: as §1
To determine this constant, “crossover curves” of the test product against a reference agonist are performed in a 96-well plate: 10 concentrations of the test product plus a concentration 0 are arranged in a line, and 7 concentrations of the agonist plus a concentration 0 are arranged in a column. This is 88 measurement points for 1 product and 1 receptor. […]
The various dilutions of the test products and of the reference ligand are added at a rate of 5 μl per well. […] After 5 minutes, the plates are read by the luminescence detector.

The target of a further assay is T3, PPARα (Homo sapiens, UniProt Q07869).
T3 construct: Either way it is a handle and not a second protein
T3 sequence (Q07869 200-468 limits assumed): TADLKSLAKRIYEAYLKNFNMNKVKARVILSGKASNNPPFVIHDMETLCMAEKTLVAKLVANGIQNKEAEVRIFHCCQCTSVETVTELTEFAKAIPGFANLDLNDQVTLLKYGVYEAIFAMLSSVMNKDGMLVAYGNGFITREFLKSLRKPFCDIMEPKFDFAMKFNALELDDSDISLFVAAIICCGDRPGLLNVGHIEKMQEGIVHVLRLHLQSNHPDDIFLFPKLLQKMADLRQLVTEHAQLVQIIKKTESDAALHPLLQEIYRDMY
Briefly: Crossover-curve PPAR transactivation test, PPARα. Conditions: HeLN cells stably transfected with Gal-hPPARα and luciferase reporter; Schild regression against reference agonist; n.a. means not active; read-out: PPARα Kd app. The method, then:
as §1, §2, §3, §4, §5
Background: In a reporter assay the amount or activity of a reporter protein is the signal.

Structures are written as SMILES. pKd: −log10 of the molar value. Counter-ions that a name gives are not always drawn.

For the compound `CCCCOc1cc(CCC(=O)O)ccc1-c1csc(CN(C)C(=O)c2cccc(OC)c2)c1` [Example 16, 3-[3-butoxy-4-(5-{[(3-methoxybenzoyl)methylamino]methyl}thiophen-3-yl)phenyl]propanoic acid], the pKd (usually the negative decadic logarithm of the Kd, by convention in mol/L) at PPARγ was 7.52.

As for `CCCCCCCNC(=O)N(C)c1cccc(-c2ccc(CCC(=O)O)cc2)n1` [Example 6, 3-{4-[6-(3-heptyl-1-methylureido)pyrid-2-yl]phenyl}propanoic acid], the pKd is 5.40 on PPARδ and 6.60 at PPARγ.

For the compound `CCCCCNC(=O)N(C)c1cccc(-c2ccc(CCC(=O)O)cc2OCCCC)n1` [Example 11, 2-[2-butoxy-4-(2-carboxyethyl)phenyl]-6-(1-methyl-3-pentylureido)pyridinium hydrochloride], the figures for the negative-log Kd (pKd) at PPARγ and at PPARα were 6.92 and 5.70, respectively.

`CCCCCCCNC(=O)N(C)c1cccc(-c2ccc(CCC(=O)O)cn2)c1` [Example 7, 3-{6-[3-(3-heptyl-1-methylureido)phenyl]pyrid-3-yl}propanoic acid]: the negative-log Kd (pKd) on PPARγ was 7.22.

On to `CCCCCCCC(=O)N(C)Cc1cccc(-c2ccc(CCC(=O)O)s2)c1` [Example 2, 3-(5-{3-[(methyloctanoylamino)methyl]phenyl}thiophen-2-yl)propanoic acid], for which the pKd at PPARγ is 6.30.

Regarding `CCCCCCCC(=O)N(C)Cc1cccc(-c2ccc(/C=C/C(=O)O)s2)c1` [Example 1, 3-(5-{3-[(methyloctanoylamino)methyl]phenyl}thiophen-2-yl)acrylic acid], the pKd on PPARγ is 6.00.

Take `CCCCCCCNC(=O)N(C)c1cccc(-c2ccc(CCC(=O)O)cc2OCC)n1` [Example 13, 2-[4-(2-carboxyethyl)-2-ethoxyphenyl]-6-(3-heptyl-1-methylureido)pyridinium hydrochloride]: the pKd was 5.10 on PPARδ, 6.92 at PPARγ and 5.40 on PPARα.

With `CCCCCCCNC(=O)N(C)c1ccnc(-c2ccc(CCC(=O)O)cc2)c1` [Example 8, 2-[4-(2-carboxyethyl)phenyl]-4-(3-heptyl-1-methylureido)pyridinium acetate], the pKd at PPARγ is 6.00.

In the case of `CCCCCCCC(=O)N(C)Cc1cc(-c2ccc(CCC(=O)O)cc2OCCCC)cs1` [Example 14, 3-(3-butoxy-4-{5-[(methyloctanoylamino)methyl]thiophen-3-yl}phenyl)propanoic acid], the pKd on PPARγ was 8.70.

Consider `CCCCCCCNC(=O)N(C)c1cccc(-c2ccc(CCC(=O)O)cc2OCCCC)n1` [Example 12, 2-[2-butoxy-4-(2-carboxyethyl)phenyl]-6-(1-methyl-3-heptylureido)pyridinium hydrochloride], for which the results for the pKd on PPARγ and at PPARα were 7.82 and 5.40, respectively.

As to `CCCCOc1cc(CCC(=O)O)ccc1-c1csc(CN(C)C(=O)c2ccc(OC)cc2)c1` [Example 15, 3-[3-butoxy-4-(5-{[(4-methoxybenzoyl)methylamino]methyl}thiophen-3-yl)phenyl]propanoic acid], at PPARγ, the pKd was 7.52.
